The text below walks through data of patent US20240246946A1, “MODULATORS OF TREX1” (Constellation Pharmaceuticals, Inc., priority 2021, published 2024).

The target in experiment [1] is T1, full length human TREX1 (Homo sapiens, UniProt Q9NSU2).
T1 construct: N-terminally His-Tev tagged full length human TREX1; made in house; host or cells: E. coli
T1 sequence (Q9NSU2 1-314): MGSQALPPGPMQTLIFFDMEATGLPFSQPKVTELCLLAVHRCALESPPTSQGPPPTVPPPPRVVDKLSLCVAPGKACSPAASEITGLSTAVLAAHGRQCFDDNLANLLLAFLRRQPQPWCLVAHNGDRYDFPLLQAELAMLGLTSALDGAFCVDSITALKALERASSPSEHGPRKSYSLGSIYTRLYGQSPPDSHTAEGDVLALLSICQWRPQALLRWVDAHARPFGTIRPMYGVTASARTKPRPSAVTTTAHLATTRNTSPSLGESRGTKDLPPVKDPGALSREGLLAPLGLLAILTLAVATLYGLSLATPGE
The experiment can be described thus: TREX1 Kinetics Assays (TR-FRET association and dissociation, global fit with Kintek Explorer). Type of experiment: binding. As to conditions: for residence time: hTREX1, TR-FRET kinetics; for koff: hTREX1, TR-FRET, 25° C., global fit. As for the experimental part:
Compound binding kinetics were assessed using a pair of TR-FRET assays which measure the proportion of protein bound to a biotinylated TREX1 inhibitor (“probe”).
N-terminally His-Tev tagged full length human TREX1 (expressed in E. coli and purified in house), complexed with Eu-W1024-anti-6×His (“Eu”; PerkinElmer) in reaction buffer (50 mM Tris, 150 mM NaCl, 2 mM DTT, 0.1 mg/mL BSA, 0.01% (w/v) Tween-20, 5 mM MgCl2, pH 7.4) was combined with an equal volume of test compound in reaction buffer and incubated at 25° C. Concentrations at this stage were 1 nM TREX1/Eu complex, and four concentrations of compound (diluted from 10 mM stocks in 100% DMSO). At defined time points, 18 μL of this mixture was withdrawn and combined with 2 μL probe to a final concentration of 1 μM probe. After incubating for 30 seconds, 18 μL was withdrawn and combined with 2 μL streptavidin-allophycocyanin (“SA-APC”; PerkinElmer) to a final concentration of 1.5 μM SA-APC. Fifteen μL of this mixture was then immediately transferred to a 384-well Black ProxiPlate Plus (PerkinElmer) and read in an EnVision plate reader (PerkinElmer) measuring fluorescence at 615 nm and 665 nm following excitation w/337 nm laser light. Final concentrations were 0.8 nM TREX1/Eu complex, 0.9 μM probe, and 1.5 μM SA-APC.
N-terminally His-Tev tagged full length human TREX1 (expressed in E. coli and purified in house), complexed with Eu-W1024-anti-6×His (“Eu”; PerkinElmer) in reaction buffer (50 mM Tris, 150 mM NaCl, 2 mM DTT, 0.1 mg/mL BSA, 0.01% (w/v) Tween-20, 5 mM MgCl2, pH 7.4) was combined with an equal volume of test compound in reaction buffer. Concentrations at this stage were 100 nM TREX1/Eu complex and 100 nM test compound (diluted from 10 mM stocks in 100% DMSO). Following an equilibration period of at least an hour at 25° C., this mixture was diluted 100-fold into reaction buffer containing 1 μM probe, and incubated at 25° C. At defined time points, 36 μL of the reaction mixture was withdrawn and combined with 4 μL streptavidin-allophycocyanin (“SA-APC”; PerkinElmer) to a final concentration of 1.5 μM SA-APC. Fifteen μL of this mixture was then immediately transferred to duplicate wells of a 384-well Black ProxiPlate Plus (PerkinElmer) and read in an EnVision plate reader (PerkinElmer) measuring fluorescence at 615 nm and 665 nm following excitation w/337 nm laser light.
The TR-FRET signal, a ratio of 665 nm/615 nm emitted light, was converted to fraction enzyme bound to test compound by normalizing to low signal (no enzyme or test compound) and high signal (no test compound) controls. Data from both association and dissociation experiments were fitted globally using Kintek Explorer software, which computes the rate constants directly.
(In TR-FRET formats the signal depends on donor and acceptor labels being close together.)

The target in experiment [2] is T2, hTREX1 (Homo sapiens, UniProt Q9NSU2).
T2 construct: host or cells: HCT116 dual cells
T2 sequence (Q9NSU2 1-314): T1 sequence (Q9NSU2 1-314)
Nature of the experiment: hTREX1 HCT116 Cell Assay (HCT116 dual cells, Lucia luciferase reporter of Type I interferon induction). It is filed as cell-based. Conditions: TREX1i 4 h before pBR322/BstNI transfection, read after 48 h. The procedure, abridged: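 HCT116 dual cells carrying an ISRE-type STAT1/STAT2-driven secreted Lucia luciferase reporter were pretreated with TREX1 inhibitor for 4 h (≤0.1% DMSO), then transfected with pBR322/BstNI DNA (100 ng/well, Lipofectamine LTX). Luciferase in medium read after 48 h at 37 °C.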
A general note: Reporter assays use an easily measured gene product as a stand-in for the process of interest.

On to `CCn1c(C(C)C(c2cnn(C)c2)c2ccccc2C#N)nc(C(=O)Nc2cnoc2)c(O)c1=O` (single isomer, unassigned) [Example 149 D1E2], for which, in experiment [1], the residence time came to 505 min and the koff was 3.3e-05 s⁻¹. The compound also returned a half-maximal inhibitory concentration (IC50) in experiment [2] of 10 to 100 nM.
In experiment [1], `C[C@H](c1nc(C(=O)Nc2cnoc2)c(O)c(=O)n1C)[C@@H](c1cc(F)ccc1C#N)c1cn(C)nc1C#N` [Example 59 D1E2] had a residence time of 515 min and a koff of 3.23e-05 s⁻¹. This compound had a concentration for half-maximal inhibition (IC50) in experiment [2] of under 10 nM.

In general, residence time refers to the mean lifetime of the complex, commonly the reciprocal of the off-rate. By koff is commonly meant a measure of how fast the partners let go of each other. A low value points to a long-lived complex. As a reminder, the IC50 is the midpoint of a concentration-inhibition curve. High values mean a need for much substance, low ones inhibition by little substance.
